Measured values as given in patent US7495108B2, “Imidazoline derivatives having CB1-antagonistic activity” (Solvay Pharmaceuticals, B.V., priority 2004, dated 2009).

Legend:
[1] = target: human cannabinoid CB1 receptor (Homo sapiens, UniProt P21554); assay: In vitro affinity for cannabinoid-CB1 receptors ([3H]CP-55,940 radioligand binding, CHO cell membranes); conditions: [3H]CP-55,940 as radioligand, read-out: In vitro affinity pKi value (converted)
Protocol: In vitro Affinity for Cannabinoid-CB1 Receptors
The affinity of the compounds of the invention for cannabinoid CB1 receptors can be determined using membrane preparations of Chinese hamster ovary (CHO) cells in which the human cannabinoid CB1 receptor is stably transfected in conjunction with [^3H]CP-55,940 as radioligand. After incubation of a freshly prepared cell membrane preparation with the [^3H]-ligand, with or without addition of compounds of the invention, separation of bound and free ligand is performed by filtration over glassfiber filters. Radioactivity on the filter is measured by liquid scintillation counting.

human CB1 receptor = human CB1 receptor (Homo sapiens, UniProt P21554); assay: In vitro cannabinoid-CB1 receptor antagonism (WIN 55,212-2-induced [3H]-arachidonic acid release in CHO cells); assay type: cell-based; conditions: antagonism of WIN 55,212-2-induced [3H]-arachidonic acid release, read-out: In vitro antagonism pA2-value (arachidonic acid release) (converted)
Protocol: In vitro Cannabinoid-CB1 Receptor Antagonism
In vitro CB1 receptor antagonism can be assessed with the human CB1 receptor cloned in Chinese hamster ovary (CHO) cells. CHO cells are grown in a Dulbecco's Modified Eagle's medium (DMEM) culture medium, supplemented with 10% heat-inactivated fetal calf serum. Medium is aspirated and replaced by DMEM, without fetal calf serum, but containing [^3H]-arachidonic acid and incubated overnight in a cell culture stove (5% CO2/95% air; 37° C.; water-saturated atmosphere). During this period [^3H]-arachidonic acid is incorporated in membrane phospholipids. On the test day, medium is aspirated and cells are washed three times using 0.5 mL DMEM, containing 0.2% bovine serum albumin (BSA). Stimulation of the CB1 receptor by WIN 55,212-2 leads to activation of PLA2 followed by release of [^3H]-arachidonic acid into the medium. This WIN 55,212-2-induced release is concentration-dependently antagonized by CB1 receptor antagonists.

human cannabinoid CB1 receptor, sequence (P21554 whole entry): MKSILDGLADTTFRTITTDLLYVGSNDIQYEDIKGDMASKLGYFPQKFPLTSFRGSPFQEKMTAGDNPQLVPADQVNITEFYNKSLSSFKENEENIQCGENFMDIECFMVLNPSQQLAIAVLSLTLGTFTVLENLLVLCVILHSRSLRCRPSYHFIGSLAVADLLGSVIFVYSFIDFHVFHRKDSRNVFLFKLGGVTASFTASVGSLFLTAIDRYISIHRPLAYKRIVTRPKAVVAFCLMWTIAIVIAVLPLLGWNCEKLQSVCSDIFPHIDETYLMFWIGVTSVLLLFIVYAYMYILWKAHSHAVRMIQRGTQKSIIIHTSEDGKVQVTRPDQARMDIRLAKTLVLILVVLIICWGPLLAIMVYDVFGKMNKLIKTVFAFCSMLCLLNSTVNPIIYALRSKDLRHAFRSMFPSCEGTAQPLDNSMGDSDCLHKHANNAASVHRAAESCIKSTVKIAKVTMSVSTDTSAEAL
human CB1 receptor, sequence (P21554 whole entry): as above

Work on `N/C(=N\S(=O)(=O)c1ccc(F)cc1)C1CN(c2ccc(Cl)cc2)C(c2ccc(Cl)cc2Cl)=N1` (centres unmarked) yielded a melting point of 172 to 175 °C.
Work on `O=C(NC1CC2CCC1C2)C1CN(c2ccc(Cl)cc2)C(c2ccc(Cl)cc2Cl)=N1` (single isomer, unassigned) [Compound 1, 1-(4-chlorophenyl)-2-(2,4-dichlorophenyl)-N-(exo-2-bicyclo[2.2.1]heptyl)-4,5-dihydro-1H-imidazole-4-carboxamide] yielded a Ki [1] of 20 nM.
`CN(C)S(=O)(=O)/N=C(\N)C1CN(c2ccc(Cl)cc2)C(c2ccc(Cl)cc2Cl)=N1` (centres unmarked) [Compound 8, 1-(4-chlorophenyl)-2-(2,4-dichlorophenyl)-N-(dimethylaminosul-fonyl)-4,5-dihydro-1H-imidazole-4-carboxamidine] showed a Ki [1] of 158 nM and a melting point of 146 to 147 °C.
Work on `N/C(=N\S(=O)(=O)c1ccc(Cl)cc1)C1CN(c2ccc(Cl)cc2)C(c2ccc(Cl)cc2Cl)=N1` (centres unmarked) [Compound 5, 1-(4-chlorophenyl)-2-(2,4-dichlorophenyl)-N-[(4-chlorophenyl)sulfonyl]-4,5-dihydro-1H-imidazole-4-carboxamidine] yielded a melting point of 165 to 166 °C.
Work on `O=C(NC1CCCCC1)C1CN(c2ccc(Cl)cc2)C(c2ccc(Cl)cc2Cl)=N1` (centres unmarked) [Compound 4, 1-(4-Chlorophenyl)-2-(2,4-dichlorophenyl)-N-cyclohexyl4,5-dihydro-1H-imidazole-4-carboxamide] yielded a Ki [1] of 100 nM, a Kb (human CB1 receptor) of 20 nM and a melting point of 127 to 129 °C.
Work on `CN(C)S(=O)(=O)/N=C(\N)C1CN(c2ccccc2)C(c2ccc(Cl)cc2)=N1` (centres unmarked) [Compound 7, 2-(4-Chlorophenyl)-N-(dimethylaminosulfonyl)-1-phenyl-4,5-dihydro-1H-imidazole-4-carboxamidine] yielded a melting point of 136 to 139 °C.
For `O=C(NC1CC2CCC1C2)C1CN(c2ccc(Cl)cc2)C(c2ccc(Cl)cc2Cl)=N1` (single isomer, unassigned) [Compound 2, 1-(4-chlorophenyl)-2-(2,4-dichlorophenyl)-N-(exo-2-bicyclo[2.2.1]heptyl)-4,5-dihydro-1H-imidazole-4-carboxamide], the Ki [1] was 100 nM.
In the case of `O=C(NN1CCCCC1)C1CN(c2ccc(Cl)cc2)C(c2ccc(Cl)cc2Cl)=N1` (centres unmarked) [Compound 3, 1-(4-chlorophenyl)-2-(2,4-dichlorophenyl)-N-(piperidin-1-yl)-4,5-dihydro-1H-imidazole-4-carboxamide], the melting point is reported as 113 to 116 °C.
